The numbers were not newly measured in patent publication US7625410B2, “Stent device and method” (Boston Scientific Scimed, Inc., priority 2001, dated 2009), which cites them from elsewhere.

The subject of series [1] is human and rat aortic smooth muscle cells and endothelial cell proliferation.
Experiment in series [2]: not given
This is another data set of the same source.

As to `C=CC[C@@H]1/C=C(\C)C[C@H](C)C[C@H](OC)[C@H]2O[C@@](O)(C(=O)C(=O)N3CCCC[C@H]3C(=O)O[C@H](/C(C)=C/[C@@H]3CC[C@@H](O)[C@H](OC)C3)[C@H](C)[C@@H](O)CC1=O)[C@H](C)C[C@@H]2OC` [tacrolimus], in series [1] (human and rat aortic smooth muscle cells and endothelial cells), the “antiproliferative properties on vascular cells” value is “very modest antiproliferative properties”. Also, the “transition to the secretory smooth muscle cell type” value in series [1] (smooth muscle cells, type responsible for the restenosis build up) is “practically totally inhibited”. Besides, the “solubility in organic solvents” value (chloroform, ethylacetate acetone, and ethanol) was “soluble”. For the same compound, where the note is “water”, the solubility in water result is given as “practically insoluble in water”. The halflife in series [2] (assumed value used for the estimate of systemic dosage) was 12 h. In addition, the “distribution in the blood” value in series [2] (blood) is on record as “primarily intracellular in red blood cells”. Also, the “binding in the plasma” value in series [2] (plasma) is “bound to α-1 sour glycoproteins and albumins”.
